Experimental data taken from PMC7769561, “Antileishmanial activity of synthetic analogs of the naturally occurring quinolone alkaloid N-methyl-8-methoxyflindersin” (PLoS ONE, 2020).

Experiments:
[1] = Treatment toxicity in hamsters (live weight, ALT, creatinine, BUN); assay type: in vivo, golden hamster (Mesocrisetus auratus); conditions: topical 1% ointment
Text: The hamsters were monitored every 4 weeks to assess their appearance and weight and the lesion size. We categorized each compound’s effectiveness pre- and posttreatment as follows: (i) cure (complete disappearance of lesions), (ii) improvement (>10% reduced lesion area), and (iii) therapeutic failure or nonresponse (increased lesion size). The health status was monitored weekly for 3 months (12 weeks) posttreatment. After 3 months, the hamsters were euthanized in a CO2 chamber. We performed histopathological analysis after necropsy of the affected tissues and organs. In addition, we evaluated treatment cytotoxicity using LW monitoring and biochemical parameters (alanine aminotransferase [ALT], creatinine, and blood urea nitrogen [BUN]) pretreatment and 45 days after ointment administration.

[2] = test system: L. (V.) panamensis-infected hMDMs; test: ROS generation in L. (V.) panamensis-infected hMDMs (H2DCFDA flow cytometry); assay type: cell-based, human
Description: (§1) Next, we detached the cells with ethylenediaminetetraacetic acid (EDTA)/trypsin (Lonza, MD, USA) and 2',7'-dichlorodihydrofluorescein diacetate (H2DCFDA) tagged on a 5 μM fluorescent tube (Sigma-Aldrich) in order to identify intracellular ROS and/or 4-amino-5-methylamino-2′,7′-difluorofluorescein (DAF-FM; Sigma-Aldrich) for NO production in a 5% CO2 atmosphere for 45 min at 37°C. ROS and NO were quantified using flow cytometry (FACS Canto II) at a wavelength of 480 nm. Untreated cells were used as negative controls, while cells treated with 0.0001% H2O2 and 1 μM phorbol myristate acetate were used as ROS production (positive) controls. LPS (10 ng/mL) and phytohemagglutinin (PHA-M) (10 μL/mL) (Invitrogen) were used as positive controls for NO production.

[3] = test system: L. (V.) panamensis-infected hMDMs; test: NO production in L. (V.) panamensis-infected hMDMs (DAF-FM flow cytometry); assay type: cell-based, human; conditions: compound at EC50, 24, 48 and 72 h
Description: as §1

[4] = test system: L. (V.) panamensis-infected hMDMs; test: Transmission electron microscopy of L. (V.) panamensis-infected hMDMs; assay type: cell-based, human; conditions: compound at EC50, 72 h, TEM; for Cell membrane (ultrastructural modification grade): key: -: no alteration/absence; +: low alteration/low presence; ++: alteration/moderate presence; +++: serious disturbance/abundant presence; for LB (lipid bodies, grade): key: -: no alteration/absence; +: low alteration/low presence; ++: alteration/moderate presence; +++: serious disturbance/abundant presence; for Mitochondria (ultrastructural modification grade): key: -: no alteration/absence; +: low alteration/low presence; ++: alteration/moderate presence; +++: serious disturbance/abundant presence; for Nucleus (ultrastructural modification grade): key: -: no alteration/absence; +: low alteration/low presence; ++: alteration/moderate presence; +++: serious disturbance/abundant presence
Text: This procedure involved including fresh resin and 100–200-nm-wide ultrafine cuts observed by TEM (100X–10.000X) (HITACHI-HU-12; Hitachi, Tokyo, Japan).

Substance: 1,2,3,4-tetrahydro(benzo)-3-quinolin-ol [Compound 2]
- Cytotoxicity-related clinical manifestations [1]: No cytotoxicity-related clinical manifestations
- Live weight posttreatment [1]: no evident changes during treatment
- ROS generation ([2]; compound at EC50, 48 h posttreatment): decrease in ROS generation
- ROS generation ([2]; compound at EC50, first 4 h): increase in ROS generation
- NO production compared to untreated infected hMDMs [3]: do not modulate the induction of NO production
- Cell membrane (ultrastructural modification grade) [4]: -
- LB (lipid bodies, grade) [4]: +++
- Mitochondria (ultrastructural modification grade) [4]: +
- Nucleus (ultrastructural modification grade) [4]: -
- PV (description) [4]: Multiple parasites per vacuole
- PV (parasitophorous vacuoles, grade) [4]: +
- Parasites (grade) [4]: ++
- Vacuoles (ultrastructural modification grade) [4]: -
